The target of one data set is T1, Trypsin (Bos taurus, UniProt P00760).
T1 construct: purchased Boehringer
T1 sequence (P00760 24-246): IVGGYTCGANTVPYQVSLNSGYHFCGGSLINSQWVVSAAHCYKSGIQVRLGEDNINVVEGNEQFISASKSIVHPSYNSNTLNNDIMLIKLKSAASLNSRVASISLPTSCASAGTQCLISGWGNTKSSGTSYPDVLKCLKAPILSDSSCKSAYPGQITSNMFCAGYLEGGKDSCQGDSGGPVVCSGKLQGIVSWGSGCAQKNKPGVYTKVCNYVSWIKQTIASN
In words: Relative reactivity of substrate with trypsin (absorbancy at 405 nm). The class given is biochemical, Bovine. Particulars: substrate 10 mM/l; trypsin 0.07 U/ml; Tris 50 mmol, NaCl 150 mmol, pH 8.1; 37° C. 10 minutes; absorbancy 405 nm; relative to S-2222 10 mM = 1.0. Here is the method: (§1) Specificity of the synthesized new substrate was examined by reacting with each enzyme. Details of reagents used are as describved below.
(§2) (2) Buffer: Kind of buffer, NaCl and its concentration and pH (25° C.) were set as shown below depending upon enzyme. […]
(§3) (3) Enzyme used: Enzyme used and its source, etc. are as follows. […]
(§4) (4) Terminate solution: 10% acetic acid aqueous solution.
Buffer, 0.5 ml and 0.1 ml of substrate solution are charged in a silicone-treated hard glass test tube or plastic test tube. The mixture is previously heated for 10 minutes in a thermostat at 37° C. Then, 0.05 ml of enzyme reagent is added to the mixture to perform enzyme reaction at 37° C. for 10 minutes.
Accurately 10 minutes after, 2.5 ml of the terminate solution is added to stop the enzyme reaction. Then the reaction mixture is allowed to stand at 37° C for 10 minutes and its absorbancy is measured at 405 nm.
(§5) Values in the tables indicate relative values when absorbancy of substrate S-2222, 10 mM, was made 1.0.

Data set [1] has as its target T2, α2 -macroglobulin-trypsin complex (α2 M-Try) (Bos taurus, UniProt P00760).
T2 construct: purchased SIGMA (Try); Boehringer (α2 M)
T2 sequence (P00760 24-246): T1 sequence (P00760 24-246)
T2 sequence (Q7SIH1 24-1510 partner): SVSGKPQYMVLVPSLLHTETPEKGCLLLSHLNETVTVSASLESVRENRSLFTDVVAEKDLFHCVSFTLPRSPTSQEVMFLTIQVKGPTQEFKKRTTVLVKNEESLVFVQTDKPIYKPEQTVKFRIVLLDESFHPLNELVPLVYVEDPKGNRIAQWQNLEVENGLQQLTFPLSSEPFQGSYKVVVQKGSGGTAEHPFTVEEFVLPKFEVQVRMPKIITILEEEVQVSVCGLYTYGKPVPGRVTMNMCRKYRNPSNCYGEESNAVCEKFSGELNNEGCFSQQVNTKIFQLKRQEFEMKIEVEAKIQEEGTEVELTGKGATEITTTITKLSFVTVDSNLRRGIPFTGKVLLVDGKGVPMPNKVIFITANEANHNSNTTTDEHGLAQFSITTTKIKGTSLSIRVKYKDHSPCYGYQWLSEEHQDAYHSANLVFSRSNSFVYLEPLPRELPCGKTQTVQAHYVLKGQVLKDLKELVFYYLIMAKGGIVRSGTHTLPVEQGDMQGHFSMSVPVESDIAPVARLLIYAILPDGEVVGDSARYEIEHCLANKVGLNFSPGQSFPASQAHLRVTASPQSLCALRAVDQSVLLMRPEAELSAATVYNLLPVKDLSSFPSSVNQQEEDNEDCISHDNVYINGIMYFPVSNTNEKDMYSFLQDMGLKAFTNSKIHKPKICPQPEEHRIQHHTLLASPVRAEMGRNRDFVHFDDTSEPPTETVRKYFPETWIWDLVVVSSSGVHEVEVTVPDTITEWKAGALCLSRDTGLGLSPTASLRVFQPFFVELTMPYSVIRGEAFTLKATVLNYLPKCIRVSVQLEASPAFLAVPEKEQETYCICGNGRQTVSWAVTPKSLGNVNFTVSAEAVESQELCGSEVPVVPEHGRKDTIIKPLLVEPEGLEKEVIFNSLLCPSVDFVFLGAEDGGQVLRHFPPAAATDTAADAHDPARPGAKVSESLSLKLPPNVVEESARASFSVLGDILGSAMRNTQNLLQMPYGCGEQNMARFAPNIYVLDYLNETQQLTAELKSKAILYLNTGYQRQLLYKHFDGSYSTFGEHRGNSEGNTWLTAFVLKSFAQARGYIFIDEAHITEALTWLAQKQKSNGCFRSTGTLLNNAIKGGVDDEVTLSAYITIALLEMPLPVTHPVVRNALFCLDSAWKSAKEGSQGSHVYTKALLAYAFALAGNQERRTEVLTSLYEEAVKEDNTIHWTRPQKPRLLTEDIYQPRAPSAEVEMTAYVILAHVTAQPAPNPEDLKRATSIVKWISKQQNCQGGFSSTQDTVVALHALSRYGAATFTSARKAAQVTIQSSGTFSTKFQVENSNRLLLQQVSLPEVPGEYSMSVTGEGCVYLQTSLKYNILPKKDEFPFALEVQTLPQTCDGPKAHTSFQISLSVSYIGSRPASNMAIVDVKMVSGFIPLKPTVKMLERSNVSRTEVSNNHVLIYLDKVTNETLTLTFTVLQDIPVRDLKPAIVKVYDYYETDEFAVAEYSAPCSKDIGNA
The data set is described as follows: Relative reactivity of substrate with α2 M-Try (absorbancy at 405 nm). As to conditions: substrate 10 mM/l; α2 M-Try 1/20 dilution; Bistrispropane 100 mmol, NaCl 150 mmol, pH 8.7; 37° C. 10 minutes; absorbancy 405 nm; relative to S-2222 10 mM = 1.0. It is filed as biochemical, Bovine. Here is the method:
as §1, §2, §3, §4
Buffer, 0.5 ml and 0.1 ml of substrate solution are charged in a silicone-treated hard glass test tube or plastic test tube. The mixture is previously heated for 5 minutes in a thermostat at 37° C.
Then, 0.05 ml of enzyme reagent is added to the mixture to perform enzyme reaction at 37° C. for 10 minutes.
Accurately 10 minutes after, 1.0 ml of the terminate solution is added to stop the enzyme reaction. Then the reaction mixture is allowed to stand at 37° C. for 10 minutes and its absorbancy is measured at 405 nm.
as §5

The next data set deals with Normal serum. In words: Relative reactivity of substrate with normal serum (absorbancy at 405 nm). It is filed as biochemical. Particulars: substrate 10 mM/l; undiluted human normal serum; Tris 50 mmol, NaCl 150 mmol, pH 8.5; 37° C. 5 minutes; absorbancy 405 nm; relative to S-2222 10 mM = 1.0. Here is the method:
as §1, §2, §3
Normal Human -- -- undiluted
as §4
Buffer, 0.5 ml and 0.1 ml of substrate solution are charged in a silicone-treated hard glass test tube or plastic test tube. The mixture is previously heated for 5 minutes in a thermostat at 37° C. Then, 0.1 ml of normal serum is added to the mixture to perform enzyme reaction at 37° C. for 5 minutes.
Accurately 5 minutes after, 2.0 ml of the terminate solution is added to stop the enzyme reaction. Then the reaction mixture is allowed to stand at 37° C. for 10 minutes and its absorbancy is measured at 405 nm.
as §5

Data set [2] can be described thus: Solubility of the substrates in water. It is filed as physicochemical. An excerpt: (B) Solubility of the substrates of this invention and known substrates in water were examined.

Structures can show the parent of a compound that is named as a salt. Where a SMILES comes first, the peptide text is derived from it.

As for `CC(C)[C@H](NC(=O)OCc1ccccc1)C(=O)NCC(=O)N[C@@H](CCCNC(=N)N)C(=O)Nc1ccc([N+](=O)[O-])cc1` [CHR-TRY, Z-Val-Gly-Arg-pNA-HCl, reference compound] (HELM PEPTIDE1{[O=C(OCc1ccccc1)[*:2]].V.G.R.[O=[N+]([O-])c1ccc(N[*:1])cc1]}$$$$V2.0), the “Relative Reactivity to Enzyme (relative value of absorbance) Try” value at Trypsin was found to be 0.50. Further, the “Relative Reactivity to Enzyme (relative value of absorbance) α2 M-Try” value in data set [1] amounted to 0.73. Also, the “Relative Reactivity to Enzyme (relative value of absorbance) Normal Serum” value in the data set on Normal serum was found to be 1.70. The Solubility entry in data set [2] is reported as “insoluble”.
`Cl.Cl.NC(N)=NCCC[C@H](NC(=O)[C@@H]1CCCCN1C(=O)[C@H](N)Cc1ccccc1)C(=O)Nc1ccc([N+](=O)[O-])cc1` [S-2238, HDPhePipArgpNA.2HCl, reference compound]: the “Relative Reactivity to Enzyme (relative value of absorbance) Try” value on Trypsin is listed as 0.39. For the same compound, the “Relative Reactivity to Enzyme (relative value of absorbance) α2 M-Try” value in data set [1] worked out at 0.68. In addition, the “Relative Reactivity to Enzyme (relative value of absorbance) Normal Serum” value with Normal serum worked out at 5.50.
For `Cl.Cl.NC(N)=NCCC[C@H](NC(=O)CNC(=O)[C@H](N)CCC(=O)OCc1ccccc1)C(=O)Nc1ccc([N+](=O)[O-])cc1` [Substrate No. 2] (HELM PEPTIDE1{[dE].G.R.[O=[N+]([O-])c1ccc(N[*:1])cc1]}|CHEM1{[c1ccc(CO[*:1])cc1]}$PEPTIDE1,CHEM1,1:R3-1:R1$$$V2.0), in that order: 0.71, 1.01 and 0.12.
For `CC(C)OC(=O)CC[C@@H](N)C(=O)NCC(=O)N[C@@H](CCCN=C(N)N)C(=O)Nc1ccc([N+](=O)[O-])cc1.Cl.Cl` [Substrate No. 3] (HELM PEPTIDE1{[dE].G.R.[O=[N+]([O-])c1ccc(N[*:1])cc1]}|CHEM1{[CC(C)O[*:1]]}$PEPTIDE1,CHEM1,1:R3-1:R1$$$V2.0), in that order: 0.67, 1.20 and 0.41.
For `CCCN(CCC)C(=O)CC[C@@H](N)C(=O)NCC(=O)N[C@@H](CCCN=C(N)N)C(=O)Nc1ccc([N+](=O)[O-])cc1.Cl.Cl` [Substrate No. 21] the same measures were 0.74, 1.46 and 0.20.
For the compound “Bz-Ile-Glu(OR)-Gly-Arg-pNA.HCl; R=H and CH3 [S-2222, reference compound]”, the “Relative Reactivity to Enzyme (relative value of absorbance) Try” value on Trypsin came to 1.0. The “Relative Reactivity to Enzyme (relative value of absorbance) α2 M-Try” value in data set [1] came out at 1.0. For the same compound, the “Relative Reactivity to Enzyme (relative value of absorbance) Normal Serum” value in the data set on Normal serum was 1.0. This compound also had a Solubility in data set [2] of 6 mM/l.
On to “H-D-Glu(OCH.(C2 H5)2)-Gly-Arg-ANBS.2HCl [Substrate No. 1]”, for which the “Relative Reactivity to Enzyme (relative value of absorbance) Try” value at Trypsin is listed as 0.84. Besides, the “Relative Reactivity to Enzyme (relative value of absorbance) α2 M-Try” value in data set [1] amounted to 1.19. The “Relative Reactivity to Enzyme (relative value of absorbance) Normal Serum” value in the data set on Normal serum came out at 0.03.
